The results in this text go back to article PMC6008491, “Discovery of a novel allosteric inhibitor scaffold for polyadenosine-diphosphate-ribose polymerase 14 (PARP14) macrodomain 2” (Bioorganic & Medicinal Chemistry, 2018).

The target in the test is T1, PARP14 MD2 (Homo sapiens, UniProt Q460N5).
T1 sequence (Q460N5 1003-1190 limits assumed): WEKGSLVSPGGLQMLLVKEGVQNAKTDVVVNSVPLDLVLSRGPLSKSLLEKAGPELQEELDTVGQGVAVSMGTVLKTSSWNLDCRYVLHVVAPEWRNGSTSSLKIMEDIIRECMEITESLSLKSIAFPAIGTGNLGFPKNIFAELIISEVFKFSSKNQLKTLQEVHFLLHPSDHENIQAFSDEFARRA
The test is described as follows: AlphaScreen competitive binding assay, displacement of ADP-ribose peptide from PARP14 MD2. Details: PARP14 MD2 (second MD of PARP14). The source says: Compounds were profiled for binding activity with PARP14 MD2 through a competitive (AlphaScreen™) binding assay measuring the displacement of ADP-ribose peptide from PARP14 MD2.[11a]

Where [1] appears, read: text and figures, read-out: PARP14 MD2 IC50.
Setting [2] is: Table 1, AlphaScreen, PARP14 MD2, read-out: IC50.

Usually IC50 stands for the concentration that gives 50% inhibition.

Where a name gives a salt, the structure may show the parent alone. Read-outs that look alike come from different tables or passages of the source.

As to `CC(Nc1ccccc1-c1cccc2c1[nH]c1ccccc12)C(F)(F)F` (racemic) [compound 51, (±)-2-(9H-Carbazol-1-yl)-N-(1,1,1-trifluoropropan-2-yl)aniline], the “inhibition of PARP14 MD2 (in words)” value is reported as “complete loss of activity”. Consider `CC(=O)Nc1ccncc1-c1cccc2c1[nH]c1ccccc12` [compound 15], for which, under setting [1], the IC50 was above 50 µM. Still for that read-out and setting: the figure for `CC(=O)Nc1cccnc1-c1cccc2c1[nH]c1ccccc12` [compound 16, N-[2-(9H-Carbazol-1-yl)pyridin-3-yl]acetamide] is above 50 µM.

Consider `CC(=O)Nc1cnccc1-c1cccc2c1[nH]c1ccccc12` [compound 17], for which the IC50 under setting [2] was above 50 µM. In the case of `CC(=O)Nc1ccccc1-c1nccc2c1[nH]c1ccccc12` [compound 18], the IC50 under setting [1] is 30 µM.

In the case of `CC(=O)Nc1ccccc1-c1cn2c3ccccc3c3ccnc(c1=O)c32` [compound 19], the IC50 under setting [1] was above 50 µM. For `CC(=O)Nc1ccccc1-c1cn2c3ccccc3c3cccc(c1=O)c32` [compound 20, N-[2-(4-Oxo-4H-pyrido[3,2,1-jk]carbazol-5-yl)phenyl]acetamide], the IC50 under setting [1] was above 50 µM.

Consider `CC(=O)Nc1ccccc1-c1cccc2c3ccccc3n(C)c12` [compound 24, N-[2-(9-Methyl-9H-carbazol-1-yl)phenyl]acetamide], for which the IC50 under setting [1] was above 50 µM. Still for that read-out and setting: the figure for `CC(=O)Nc1ccccc1-c1cccc2c3ccccc3n(Cc3ccccc3)c12` [compound 25, N-[2-(9-Benzyl-9H-carbazol-1-yl)phenyl]acetamide] is above 50 µM; for `CC(=O)Nc1ccccc1-c1cccc2c1oc1ccccc12` [compound 26, N-[2-(Dibenzofuran-4-yl)phenyl]acetamide] it is above 50 µM; for `CC(=O)Nc1ccccc1-c1cccc2c1sc1ccccc12` [compound 27, N-[2-(Dibenzothiophen-4-yl)phenyl]acetamide] it is 2.5 µM. For the compound `CC(=O)Nc1ccccc1-c1cccc2c1C(=O)c1ccccc1-2` [compound 28, N-[2-(9-Oxo-9H-fluoren-1-yl)phenyl]acetamide], under setting [1], the IC50 was above 50 µM. Take `CC(=O)Nc1ccccc1-c1cccc2c1C(O)c1ccccc1-2` (stereo not shown) [compound 29, N-[2-(9-Hydroxy-9H-fluoren-1-yl)phenyl]acetamide]: the IC50 under setting [1] was above 50 µM. On to `CC(=O)Nc1ccccc1-c1ccccc1Nc1ccccc1` [compound 31, N-[2'-(Phenylamino)-(1,1'-biphenyl)-2-yl]acetamide], for which the “inhibition of PARP14 MD2 (in words)” value is “completely inactive”. Same read-out and setting: the entry for `CC(=O)Nc1ccccc1-c1cccc2c(=O)c3ccccc3[nH]c12` [compound 33, N-[2-(9-Oxo-9,10-dihydroacridin-4-yl)phenyl]acetamid] is “inactive”. For the compound `CC(=O)Nc1ccccc1-c1cccc2c1[nH]c1c(Cl)c(Cl)ccc12` [compound 37, N-[2-(7,8-Dichloro-9H-carbazol-1-yl)phenyl]acetamide], under setting [1], the half-inhibitory concentration (IC50) stood at 1.4 µM. On the same count and under the same terms, the figure for `CC(=O)Nc1ccccc1-c1cccc2c1[nH]c1ccc(Cl)cc12` [compound 38, N-[2-(6-Chloro-9H-carbazol-1-yl)phenyl]acetamide] is 3 µM.

Take `COc1ccc2[nH]c3c(-c4ccccc4NC(C)=O)cccc3c2c1` [compound 39, N-[2-(6-Methoxy-9H-carbazol-1-yl)phenyl]acetamide]: the “inhibition of PARP14 MD2 (in words)” value is “inactive”. Turning to `CC(=O)Nc1ccccc1-c1cccc2c3c([nH]c12)CCCC3` [compound 44, N-[2-(5,6,7,8-Tetrahydro-9H-carbazol-1-yl)phenyl]acetamide], the IC50 under setting [1] was 1.1 µM. As for `CC(=O)Nc1ccccc1-c1cccc2c3c([nH]c12)CCNC3` [compound 47, N-[2-(2,3,4,5-Tetrahydro-1H-pyrido[4,3-b]indol-6-yl)phenyl]acetamide hydrochloride], the “inhibition of PARP14 MD2 (in words)” value was “inactive”.

For the compound `CC(C)(C)NC(=O)Nc1ccccc1-c1cccc2c1[nH]c1ccccc12` [compound 49, 1-[2-(9H-Carbazol-1-yl)phenyl]-3-(tert-butyl)urea], the IC50 under setting [2] was 7.2 ± 1.4 µM. As to `CC(=S)Nc1ccccc1-c1cccc2c1[nH]c1ccccc12` [compound 52, N-[2-(9H-Carbazol-1-yl)phenyl]thioacetamide], the IC50 under setting [2] came to 10.5 ± 0.4 µM. With `CCNc1ccccc1-c1cccc2c1[nH]c1ccccc12` [compound 53, 2-(9H-Carbazol-1-yl)-N-ethylaniline], under setting [2], the IC50 was above 50 µM. Same read-out and setting: the figure for `CCN(C(C)=O)c1ccccc1-c1cccc2c1[nH]c1ccccc12` [compound 54, N-[2-(9H-Carbazol-1-yl)phenyl]-N-ethylacetamide] is above 50 µM; for `Cc1ccc(-c2cccc3c2[nH]c2ccccc23)c(NS(C)(=O)=O)c1` [compound 55, N-(2-(9H-Carbazol-1-yl)-5-methylphenyl)methanesulfonamide] it is 1.1 ± 0.1 µM; for `CS(=O)(=O)Nc1ccc(C(F)(F)F)cc1-c1cccc2c1[nH]c1ccccc12` [compound 58, N-(2-(9H-Carbazol-1-yl)-4-(trifluoromethyl)phenyl)methanesulfonamide] it is above 50 µM.

In the case of `Cc1ccc(-c2cccc3c2[nH]c2ccccc23)c(N)c1` [compound 59, 2-(9H-Carbazol-1-yl)-5-methylaniline], the IC50 under setting [2] is above 50 µM. Turning to `Nc1ccc(C(F)(F)F)cc1-c1cccc2c1[nH]c1ccccc12` [compound 60, 2-(9H-Carbazol-1-yl)-4-(trifluoromethyl)aniline], under setting [2], the IC50 is above 50 µM. With `Cc1cccc(N)c1-c1cccc2c1[nH]c1ccccc12` [compound 61, 2-(9H-Carbazol-1-yl)-3-methylaniline], the IC50 under setting [2] was above 50 µM. Still for that read-out and setting: the figure for `CCS(=O)(=O)Nc1ccccc1-c1cccc2c1[nH]c1ccccc12` [compound 62, N-(2-(9H-carbazol-1-yl)phenyl)ethanesulfonamide] is 1.2 ± 0.03 µM. The same measure, in the same setting: the figure for `CCCS(=O)(=O)Nc1ccccc1-c1cccc2c1[nH]c1ccccc12` [compound 63, N-(2-(9H-Carbazol-1-yl)phenyl)propane-1-sulfonamide] is 2.9 ± 0.1 µM; for `CCCCS(=O)(=O)Nc1ccccc1-c1cccc2c1[nH]c1ccccc12` [compound 64, N-(2-(9H-Carbazol-1-yl)phenyl)butane-1-sulfonamide] it is 3.3 ± 0.1 µM; for `CN(C)CC(=O)Nc1ccccc1-c1cccc2c1[nH]c1ccccc12` [compound 65, N-(2-(9H-carbazol-1-yl)phenyl)-2-(dimethylamino)acetamide] it is 5.5 ± 0.6 µM. Still for that read-out and setting: the figure for `CCC(=O)Nc1ccccc1-c1cccc2c1[nH]c1ccccc12` [compound 66, N-(2-(9H-carbazol-1-yl)phenyl)propionamide] is 1 ± 0.03 µM; for `CCCC(=O)Nc1ccccc1-c1cccc2c1[nH]c1ccccc12` [compound 67, N-(2-(9H-carbazol-1-yl)phenyl)butyramide] it is 0.9 ± 0.04 µM; for `CCCCC(=O)Nc1ccccc1-c1cccc2c1[nH]c1ccccc12` [compound 68, N-(2-(9H-carbazol-1-yl)phenyl)pentanamide] it is above 50 µM. Consider `COCCS(=O)(=O)Nc1ccccc1-c1cccc2c1[nH]c1ccccc12` [compound 69, N-(2-(9H-Carbazol-1-yl)phenyl)-2-methoxyethane-1-sulfonamide], for which the 50% inhibitory concentration (IC50) under setting [2] is 8.6 ± 0.4 µM.

Consider `Cc1oncc1S(=O)(=O)Nc1ccccc1-c1cccc2c1[nH]c1ccccc12` [compound 70, N-(2-(9H-Carbazol-1-yl)phenyl)-5-methylisoxazole-4-sulfonamide], for which, under setting [2], the IC50 is above 50 µM. On the same count and under the same terms, the figure for `CN(C)S(=O)(=O)Nc1ccccc1-c1cccc2c1[nH]c1ccccc12` [compound 71, N1-(2-(9H-Carbazol-1-yl)phenyl)-N2,N2-dimethylsulfamide] is 2.5 ± 0.1 µM; for `O=S(=O)(Nc1ccccc1-c1cccc2c1[nH]c1ccccc12)c1ccccc1` [compound 72, N-(2-(9H-Carbazol-1-yl)phenyl)benzenesulfonamide] it is above 50 µM. The same measure, in the same setting: the figure for `O=C(Nc1ccccc1-c1cccc2c1[nH]c1ccccc12)C(F)(F)F` [compound 73, N-(2-(9H-carbazol-1-yl)phenyl)-2,2,2-trifluoroacetamide] is 1.1 ± 0.07 µM. Still for that read-out and setting: the figure for `O=C(Nc1ccccc1-c1cccc2c1[nH]c1ccccc12)C1CC1` [compound 74, N-(2-(9H-carbazol-1-yl)phenyl)cyclopropanecarboxamide] is 1.2 ± 0.03 µM. Turning to `O=C(Nc1ccccc1-c1cccc2c1[nH]c1ccccc12)C1CCCCC1` [compound 75, N-(2-(9H-carbazol-1-yl)phenyl)cyclohexanecarboxamide], under setting [2], the IC50 is above 50 µM.

As to `O=C(Nc1ccccc1-c1cccc2c1[nH]c1ccccc12)c1ccco1` [compound 76, N-(2-(9H-carbazol-1-yl)phenyl)furan-2-carboxamide], under setting [2], the IC50 was above 50 µM. Same read-out and setting: the figure for `O=C(Nc1ccccc1-c1cccc2c1[nH]c1ccccc12)c1ccccc1` [compound 77, N-(2-(9H-carbazol-1-yl)phenyl)benzamide] is 1.9 ± 0.07 µM. Turning to `O=C(Cc1ccccc1)Nc1ccccc1-c1cccc2c1[nH]c1ccccc12` [compound 78, N-(2-(9H-Carbazol-1-yl)phenyl)-2-phenylacetamide], the IC50 under setting [2] amounted to 7.6 ± 0.3 µM. On the same count and under the same terms, the figure for `O=S(=O)(Cc1ccccc1)Nc1ccccc1-c1cccc2c1[nH]c1ccccc12` [compound 79, N-(2-(9H-Carbazol-1-yl)phenyl)-1-phenylmethanesulfonamide] is 3.6 ± 0.3 µM; for `COc1ccccc1C(=O)Nc1ccccc1-c1cccc2c1[nH]c1ccccc12` [compound 80, N-(2-(9H-Carbazol-1-yl)phenyl)-2-methoxybenzamide] it is above 50 µM. On the same count and under the same terms, the figure for `COc1cccc(C(=O)Nc2ccccc2-c2cccc3c2[nH]c2ccccc23)c1` [compound 81, N-(2-(9H-Carbazol-1-yl)phenyl)-3-methoxybenzamide] is 12.7 ± 1.5 µM.
